According to ChEMBL document CHEMBL1123414, “Neurochemistry of aging. 1. Toxins for an animal model of Alzheimer's disease” (J Med Chem, 1986):

Tests used:
[1] = target: T1, High affinity choline transporter 1 (Mus musculus, UniProt Q8BGY9); assay: In vitro ability to inhibit the transport of [3H]choline in to high affinity choline transport system HAChT
T1 sequence (Q8BGY9 whole entry): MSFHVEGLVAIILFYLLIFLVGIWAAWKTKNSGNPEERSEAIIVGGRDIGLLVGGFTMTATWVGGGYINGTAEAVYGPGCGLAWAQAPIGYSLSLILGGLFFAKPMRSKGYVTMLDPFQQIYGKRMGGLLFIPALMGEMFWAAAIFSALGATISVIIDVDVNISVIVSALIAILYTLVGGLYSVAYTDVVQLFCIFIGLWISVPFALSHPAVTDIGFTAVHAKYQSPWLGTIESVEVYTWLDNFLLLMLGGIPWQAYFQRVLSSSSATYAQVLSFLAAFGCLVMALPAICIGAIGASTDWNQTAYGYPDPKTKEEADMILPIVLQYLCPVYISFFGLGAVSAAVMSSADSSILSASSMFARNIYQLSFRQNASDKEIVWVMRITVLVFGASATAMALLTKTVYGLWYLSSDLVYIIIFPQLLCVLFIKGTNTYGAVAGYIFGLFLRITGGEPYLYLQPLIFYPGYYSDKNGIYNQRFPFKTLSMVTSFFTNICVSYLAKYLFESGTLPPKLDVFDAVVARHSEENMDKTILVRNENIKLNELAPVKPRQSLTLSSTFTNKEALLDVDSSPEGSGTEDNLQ

[2] = target: Muscarinic acetylcholine receptor M3 (Rattus norvegicus) (UniProt P08483); assay: Compound was tested in vitro for its ability to displace [3H]-QNB from brain Muscarinic acetylcholine receptor
Sequence of Muscarinic acetylcholine receptor M3 (Rattus norvegicus) (P08483 whole entry, looked up): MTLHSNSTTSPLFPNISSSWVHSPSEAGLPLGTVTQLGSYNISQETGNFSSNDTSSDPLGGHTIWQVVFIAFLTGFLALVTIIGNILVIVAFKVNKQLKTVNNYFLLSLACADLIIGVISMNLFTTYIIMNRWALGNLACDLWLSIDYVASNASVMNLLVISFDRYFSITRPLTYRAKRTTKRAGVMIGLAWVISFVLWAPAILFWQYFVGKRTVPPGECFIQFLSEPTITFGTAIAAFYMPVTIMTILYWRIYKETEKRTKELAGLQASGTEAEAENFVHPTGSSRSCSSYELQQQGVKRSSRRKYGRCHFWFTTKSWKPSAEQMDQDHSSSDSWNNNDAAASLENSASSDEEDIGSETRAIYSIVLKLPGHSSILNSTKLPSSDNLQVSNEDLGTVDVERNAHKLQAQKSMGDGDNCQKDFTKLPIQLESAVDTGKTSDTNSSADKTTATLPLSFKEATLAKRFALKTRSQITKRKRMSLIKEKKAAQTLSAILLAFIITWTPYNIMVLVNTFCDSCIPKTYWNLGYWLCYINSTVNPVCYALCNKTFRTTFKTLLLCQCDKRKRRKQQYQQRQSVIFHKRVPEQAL

Row | SMILES | IC50 [1] | Displacement [2]
1 | CCCC[N+]1(CCO)CC1 | > 1000 µM | 9%
2 | CCC[N+]1(CCO)CC1 | 7.5 µM | 16%
3 | CC[N+]1(CCO)CC1 | 1.5 µM | 18%
4 | CC(C)C[N+]1(CCO)CC1 | 31 µM | 6%
5 | C[N+](C)(C)CCO [CHOLINE] | 1.6 µM | 
